Experiments:
Assay type in all cases: in vivo
banana [1] = assay: Time of protection (insensitivity to ethylene) of bananas, compounds of the invention; settings: saturating amount (at least 10 times minimum) for 24 hours, daily challenge with 333 μl/l ethylene 12-15 hours
Method: To obtain the time of protection, bananas were exposed to a saturating amount of the compound for 24 hours (this was done as described in Example 1 above and at least 10 times the minimum protection amount was used). After exposure, bananas were removed from the jars and each day individual bananas were exposed to 333 μl/l of ethylene for 12-15 hours. The day the bananas responded to ethylene was recorded as the protection time.

banana [2] = assay: Minimum concentration protecting bananas from 333 μl/l ethylene (compound on filter paper in 3-liter jar)
Method: To obtain the minimum concentration that protected bananas from 333 μl/l of ethylene, compounds according to the present invention were applied to bananas according to the method described herein. A known amount of the active compound was placed on filter paper in a 3-liter jar to facilitate evaporation into the vapor state. The compounds were applied in an ethyl ether solution because the amount used was potentially too small to apply unless they were in solution. The amount of ether (about 10 μl in 3 l) was without effect when applied alone on a banana contained in a 3-liter jar. The jar was sealed and the banana was removed after 4 hours of exposure. At the end of exposure, the banana was treated with 333 μl/l of ethylene in a 3-liter jar for 12-15 hours. It was then observed for ripening. The minimum concentration is the concentration that protected the bananas from 333 μl/l of ethylene. Ten microliters/liter of ethylene is usually considered to be a saturating amount. This procedure was repeated for 8-, 24- and 48-hour treatment times to determine the minimum concentration of active compounds of the present invention needed to provide protection from 333 μl/l of ethylene for a given treatment time.

[3] = test system: Patio variety tomato seedlings; assay: Tomato epinasty test, volatile gas treatment; settings: Gas 10 ppm; ethylene 10 ppm v/v; scale of 0 to 10, 10 complete protection, 0 no protection
Method: The test procedure is designed to determine the ability of an compound according to the present invention to block the epinastic growth response induced by ethylene in tomato plants when the compound is administered either as a volatile gas or as a component of a spray solution. Treatment chambers are of an appropriate size for the test plants and are airtight. Each is fitted with a reusable septum to be used for injection of ethylene. Test plants are Patio variety tomato seedlings planted two plants per three inch square plastic pot. Volatile gas treatment entails placing two pots of Patio var. tomatoes into a polystyrene 4.8 L volume treatment chamber along with one-half (upper or lower section) of a 50×9 mm plastic Petri dish containing a Gelman filter pad. The appropriate amount of experimental compound, dissolved in 1.0 ml acetone, is pipetted onto the filter pad and the chamber immediately sealed. Four hours later ethylene gas equal to 10 ppm v/v final concentration is injected into the sealed chamber. Sixteen hours later the chambers are opened in an exhaust hood, allowed to air and the plants scored visually for the degree of protection against ethylene-induced epinasty conferred by the experimental compound when compared to ethylene treated and untreated controls on a scale of 0 to 10. A rating of 10 means complete protection. A rating of 0 means no protection from the effects of ethylene.

[4] = test system: Patio variety tomato seedlings; assay: Tomato epinasty test, spray application treatment; settings: applied as a spray; ethylene 10 ppm v/v; scale of 0 to 10, 10 complete protection
Method: The test procedure is designed to determine the ability of an compound according to the present invention to block the epinastic growth response induced by ethylene in tomato plants when the compound is administered either as a volatile gas or as a component of a spray solution.
Treatment chambers are of an appropriate size for the test plants and are airtight. Each is fitted with a reusable septum to be used for injection of ethylene.
Test plants are Patio variety tomato seedlings planted two plants per three inch square plastic pot.
Spray application treatment entails using a DeVilbiss atomizer to completely cover all foliage and stems of two pots of Patio var. tomato plants with the appropriate amount of experimental compound dissolved in 10% acetone/90% water with 0.05% Silwett L-77 surfactant. Plants are air-dried in a drying hood for four hours then transferred to a 4.8 L polystyrene chamber which is sealed.
Ethylene gas equal to 10 ppm v/v final concentration is injected into the sealed chamber. Sixteen hours later the chambers are opened in an exhaust hood, allowed to air and the plants scored visually for the degree of protection against ethylene-induced epinasty conferred by the experimental compound when compared to ethylene treated and untreated controls on a scale of 0 to 10. A rating of 10 means complete protection. […]

[5] = Table 2 (values equal the 24-hour treatment of Table 1)
[6] = treatment time 4 hours, then 333 μl/l ethylene 12-15 hours
[7] = treatment time 8 hours, then 333 μl/l ethylene 12-15 hours
[8] = treatment time 24 hours, then 333 μl/l ethylene 12-15 hours
[9] = treatment time 48 hours, then 333 μl/l ethylene 12-15 hours

In the case of `CCCCCCCCC1=CC1` [Compound 23, 1-octylcyclopropene], the “Time of Insensitivity” value (banana [1]) was 25 days, the “Minimum Concentration” value (banana [2]; [5]) was 0.3 nl/l and the “Minimum Concentration” value (banana [2]; [6]) was 0.8 nl/l. The “Minimum Concentration” value (banana [2]; [7]) was 0.45 nl/l, the “Minimum Concentration” value (banana [2]; [8]) was 0.3 nl/l and the “Minimum Concentration” value (banana [2]; [9]) was 0.25 nl/l. For the same compound, the “Protection against ethylene-induced epinasty, rating” value (“Protection” for short) [3] was 10.
`CCCCCCC1=CC1` [Compound 1, 1-Hexyl-cyclopropene] was tested, and the “Time of Insensitivity” value (banana [1]) was 20 days, the “Minimum Concentration” value (banana [2]; [5]) was 0.4 nl/l and the “Minimum Concentration” value (banana [2]; [6]) was 12.0 nl/l. For the same compound, the “Minimum Concentration” value (banana [2]; [7]) was 0.8 nl/l, the “Minimum Concentration” value (banana [2]; [8]) was 0.4 nl/l and the “Minimum Concentration” value (banana [2]; [9]) was 0.3 nl/l. The “Protection” value [3] was 10.
In the case of `CCCCCC1=CCC1` [1-pentylcyclobutene], the “Protection” value [4] was 10.
`CCCCC1=CCC1` [1-butylcyclobutene, reference compound] was tested, and the “Protection” value [4] was 5.

Source: patent US6365549B2, “Methods of blocking an ethylene response in plants using cyclopropene derivatives” (North Carolina State University, priority 1999, dated 2002)
